This note sets out measurements from patent US20240217968A1, “PHARMACEUTICAL COMPOUND” (DUKE STREET BIO LIMITED, priority 2021, published 2024).

Some results are limits rather than exact numbers.

For this assay, the target named is T1, recombinant human Flag-tagged PARP7 (amino acids 456-657) (Homo sapiens, UniProt Q7Z3E1).
T1 construct: recombinant human Flag-tagged PARP7 (amino acids 456-657)
T1 sequence (Q7Z3E1 456-657): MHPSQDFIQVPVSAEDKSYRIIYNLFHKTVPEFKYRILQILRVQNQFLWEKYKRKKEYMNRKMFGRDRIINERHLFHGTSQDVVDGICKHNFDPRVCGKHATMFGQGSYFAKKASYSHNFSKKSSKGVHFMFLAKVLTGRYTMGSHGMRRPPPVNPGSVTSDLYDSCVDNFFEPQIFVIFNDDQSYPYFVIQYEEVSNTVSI
In words: PARP7 biochemical DELFIA assay (auto-MARylation). The conditions noted are these: DELFIA readout, IC50 class. The essentials: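 Flag-PARP7 (456-657), 12.5-37.5 nM stock, captured on anti-FLAG wells, preincubated 30 min with compound, then auto-MARylated with biotin-NAD+ (15 μM stock) in HEPES pH 7.5/NaCl/DTT/BSA/Tween for 2-3 h at room temperature. NAD+ quench; Eu-streptavidin DELFIA read, Ex337/Em620 nm.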
Broadly, the IC50 is the concentration that inhibits the measured activity by half. For `COc1ccc(N2CCN(C(=O)CCOCC(C)n3nc(C(F)(F)F)c4c(=O)[nH]ncc43)CC2)nc1` (single isomer, unassigned) [Compound 306], the IC50 was at most 100 nM.
Regarding `O=C(CCOCCc1cccc2c(=O)[nH]ncc12)N1CCC(c2nc3ccccc3s2)CC1` [Compound 140], the IC50 is at most 100 nM.
The figure for `CC(C)(C)c1cnc(N2CCN(C(=O)CCOCCc3cccc4c(=O)[nH]ncc34)CC2)nc1` [Compound 252] is at most 100 nM; for `CC(C)(COCCC(=O)N1CCN(c2ncc(C(F)(F)F)cn2)CC1)c1cccc2c(=O)[nH]ncc12` [Compound 425] it is 100 to 1000 nM; for `N#Cc1ccc(N2CCN(C(=O)c3cccc(Cn4ccc5c(=O)[nH]ncc54)c3)CC2)nc1` [Compound 9] it is 100 to 1000 nM.
As for `O=C(CCOCCn1ccc2c(=O)[nH]ncc21)N1CCN(c2ncc(C(F)(F)F)cn2)CC1` [Compound 10, 1-(2-(3-oxo-3-(4-(5-(trifluoromethyl)pyrimidin-2-yl)piperazin-1-yl)propoxy)ethyl)-1,5-dihydro-4H-pyrrolo[2,3-d]pyridazin-4-one], the IC50 was at most 100 nM.
The figure for `CC1CN(C(=O)CCOCCc2cccc3c(=O)[nH]ncc23)CCN1c1ncc(C(F)(F)F)cn1` (stereo not shown) [Compound 89] is at most 100 nM; for `O=C(CCOCCc1cccc2c(=O)[nH]ncc12)N1CCN(c2nc3cc(F)ccc3o2)CC1` [Compound 199] it is at most 100 nM; for `O=C1NCCCc2c(CCOCCC(=O)N3CCN(c4ncc(C(F)(F)F)cn4)CC3)cccc21` [Compound 145] it is 1000 to 10000 nM.
As for `O=C(CCOCCc1cccc2c(=O)[nH]ncc12)N1CCN(c2ccc(C(F)(F)F)cn2)CC1` [Compound 98, 5-(2-(3-oxo-3-(4-(5-(trifluoromethyl)pyridin-2-yl)piperazin-1-yl)propoxy)ethyl)phthalazin-1(2H)-one], the figure is at most 100 nM.
Consider `Cc1c(C)n(C(C)COCCC(=O)N2CCN(c3ncc(C(F)(F)F)cn3)CC2)c2cn[nH]c(=O)c12` (single isomer, unassigned) [Compound 365], for which the IC50 was at most 100 nM.
The figure for `Cn1c(N2CCN(C(=O)CCOCCn3nc(C(F)(F)F)c4c(=O)[nH]ncc43)CC2)nc2ccccc21` [Compound 195] is at most 100 nM; for `CC(COCCC(=O)N1CCN(c2ccc(C#N)cn2)CC1)n1nc(C(F)F)c2c(=O)[nH]ncc21` (single isomer, unassigned) [Compound 437] it is at most 100 nM.
As for `[2H]C([2H])(OCCC(=O)N1CCN(c2ncc(C(F)(F)F)cn2)CC1)C(C)n1nc(C(F)(F)F)c2c(=O)[nH]ncc21` (stereo not shown) [Compound 422], the figure is at most 100 nM; as for `O=C(CCOCCn1ccc2c(=O)[nH]cnc21)N1CCN(c2ncc(C(F)(F)F)cn2)CC1` [Compound 53], 100 to 1000 nM.
Consider `CC(COCCC(=O)N1CCN(c2nc(C#N)co2)CC1)n1nc(C(F)(F)F)c2c(=O)[nH]ncc21` (single isomer, unassigned) [Compound 318], for which the IC50 lay in the range of 100 to 1000 nM.
The figure for `O=C(CCOCCc1cccc2c(=O)[nH]ncc12)N1CCN(c2ccc(OC(F)(F)F)cn2)CC1` [Compound 114] is at most 100 nM; for `CC(COCCC(=O)N1CCN(c2ncc(C3CC3)cn2)CC1)n1nc(C(F)(F)F)c2c(=O)[nH]ncc21` (single isomer, unassigned) [Compound 281] it is at most 100 nM; for `CC(COCCC(=O)N1CCN(c2ccc(C#N)cn2)CC1)n1cc(C(F)F)c2c(=O)[nH]ncc21` (single isomer, unassigned) [Compound 448] it is at most 100 nM.
The figure for `CC(COCCC(=O)N1CCN(c2ncc(C#N)o2)CC1)n1nc(C(F)(F)F)c2c(=O)[nH]ncc21` (stereo not shown) [Compound 330] is at most 100 nM; for `O=C(CCOCCn1nc(C(F)(F)F)c2c(=O)[nH]ncc21)N1CCN(c2nc(C(F)(F)F)co2)CC1` [Compound 314] it is at most 100 nM; for `O=C(CCOCCN1CCCc2c1cn[nH]c2=O)N1CCN(c2ncc(C(F)(F)F)cn2)CC1` [Compound 8] it is at most 100 nM.
